This experiment is described as follows: DPPH free-radical scavenging assay. It is filed as biochemical. Conditions: 300 μM DPPH in methanol, room temperature, 30 min, read at 517 nm, mean of 3 observations; for IC50: read-out: IC50 (μM), concentration of sample required to scavenge 50% DPPH free radicals. As to the method:
DPPH Radical Scavenging Assay. The DPPH free radical scavenging assay is based on the abilities of compounds to quench stable DPPH free radicals (Lee, S. K.; Mbwambo, Z. H.; Chung, H. S.; Luyengi, L.; Gamez, E. J. C.; Mehta, R. G.; Kinghorn, A. D.; Pezzuto, J. M. Comb. Chem. High Throughput Screen. 1998, 1, 35-46). Reaction mixtures (200 μL) were prepared by combining multiple concentrations of test sample in methanol (10 μL) with DPPH (Aldrich, Milwaukee, Wis.) in methanol (190 μL). The final DPPH concentration was 300 μM. The reaction mixtures were incubated in 96-well microtiter plates at room temperature for 30 min. After the reaction, reduction of the radical was then measured at 517 nm. Percent inhibition by sample treatment was determined by comparison with controls containing no test samples. IC50 values denote the concentration of sample, required to scavenge 50% DPPH free radicals (Ibid.).
For orientation: Loss of DPPH colour is used to gauge radical scavenging.

Consider `O=C1O[C@H]([C@@H](O)CO)C(O)=C1O` [Ascorbic acid], for which the “IC50 (μg/mL), concentration of sample required to scavenge 50% DPPH free radicals” value stood at 11.8 µg/mL and the IC50 was determined as 66.8 µM.
The corresponding values for `CC(C)c1cc2c(c(O)c1O)[C@@]1(C(=O)O)CCCC(C)(C)[C@@H]1CC2` [Compound 1, carnosic acid] are 18.7 µg/mL and 53.3 µM.
The corresponding values for `COc1c(C(C)C)cc2c(c1O)C1(CO)CCCC(C)(C)C1CC2` (centres unmarked) [Compound 4, 11,20-dihydroxy-12-methoxy-abiet-8,11,13-triene] are 27.7 µg/mL and 83.4 µM.
The like results for `CC(C)c1cc2c(c(O)c1O)[C@@]13CCCC(C)(C)[C@@H]1C[C@@H]2OC3=O` [Compound 5, 11,12-dihydroxy-7-10-(epoxymethano)-abiet-8,11,13-triene-20-one] were, in that order, 37.9 µg/mL and 114 µM.
On to `CC1(C)CCCC23C(=O)OC(CC12)c1cc(C(CO)CO)c(O)c(O)c13` (centres unmarked) [Compound 6, 11,12,16,17-tetrahydroxy-7-10-(epoxymethano)-abiet-8,11,13-triene-20-one], for which the “IC50 (μg/mL), concentration of sample required to scavenge 50% DPPH free radicals” value amounted to 23.9 µg/mL and the IC50 was 66 µM.
The corresponding values for `CCCOC(=O)c1cc(O)c(O)c(O)c1` [Propyl gallate] are 9.8 µg/mL and 46.1 µM.
The like results for `Oc1cccc(O)c1O` [Pyrogallol] were, in that order, 4.8 µg/mL and 37.8 µM.
